This is an account of results in patent US6528532B1, “Urea derivatives as HIV aspartyl protease inhibitors” (Pharmacor Inc., priority 2002, dated 2003).

Each structure is given as a SMILES string.

This experiment has as its target HIV protease (Human immunodeficiency virus type 1 group M subtype B, UniProt P04585). The experiment is described as follows: Enzymatic (FRET fluorometric) assay for determining the inhibition constant (Ki) of compounds targeting the HIV protease. It counts as biochemical. To be noted: FRET substrate (EDANS/DABCYL), equation of Henderson; read-out: Ki. The source says:
Enzymatic Assay for Determining the Inhibition Constant (Ki) of Synthetic Compounds Targeting the HIV Protease
This is a fluorometric assay based on the cleavage by protease of a substrate carrying a donor group (EDANS) and an acceptor group (DABCYL) on each side of the cleavage site, interacting together through fluorescence resonance energy transfer (FRET) as described by Matayoshi et al. (Science 247:[…], 1990).
After calculation of Vo and Vi, the inhibition constant (Ki) of the compound is determined using the equation of Henderson: [formula]
where Vo=the enzyme's initial velocity
Vi=the enzyme velocity in the presence of the inhibitory compound,
[I]=inhibitor concentration, [S]=substrate concentration,
Km=Michaelis-Menten constant and Kiapp=apparent Ki
Graphs are traced and the Ki determined using GraphPad Prism software v. 3.0.
For `Cc1ccc(S(=O)(=O)N(CC(C)C)[C@H](CO)CCCCNC(=O)N(Cc2ccccc2)Cc2cccc(N)c2)cc1` [Example 63, (2S) 2-N-Isobutyl-2-N-(4-methylbenzenesulfonyl)-6-N-[N′-(3-aminobenzyl)-N′-benzylaminocarbonyl]-2,6-diaminohexanol], the inhibition constant (Ki) turned out to be 54 nM.

As to `Cc1ccc(S(=O)(=O)N(CC(C)C)[C@H](CO)CCCCNC(=S)N(Cc2ccccc2)Cc2ccccc2)cc1` [Example 34, (2S) 2-N-Isobutyl-2-N-(4-methylbenzenesulfonyl)-6-N-(N′,N′-dibenzylaminothiocarbonyl)-2,6-diaminohexanol], the Ki came to 78 nM. Then `CC(C)CN([C@H](CO)CCCCNC(=O)N(CCc1cccs1)Cc1ccc(F)cc1)S(=O)(=O)c1ccc(N)cc1` [Example 69, (2S) 2-N-(4-Aminobenzenesulfonyl)-2-N-isobutyl-6-N-[N′-(4-fluorobenzyl)-N′-(2-thiophenethyl)aminocarbonyl]-2,6-diaminohexanol], with 34 nM. Regarding `Cc1ccc(S(=O)(=O)N(CC(C)C)C(CCCCNC(=NC#N)NCCc2c[nH]c3ccccc23)C(=O)O)cc1` [Example 29, Nα-Isobutyl-Nα-(4-methylbenzenesulfonyl)-Nε-[2′-(3-indolyl)ethylaminocarbonyl-N-cyanoamidine]-L-lysine], the Ki amounted to 8.2 nM. Consider `Cc1ccc(S(=O)(=O)N(CC(C)C)[C@@H](CCCCNC(=O)N(Cc2ccccc2)C(C)C)C(=O)O)cc1` [Example 39, Nα-Isobutyl-Nα-(4-methylbenzenesulfonyl)-Nε-[(N′-benzyl-N′-iso-propyl)aminocarbonyl]-L-lysine], for which the Ki is 19 nM. Then `Cc1ccc(S(=O)(=O)N(CC(C)C)[C@@H](CCCCNC(=O)N(Cc2ccncc2)Cc2ccncc2)C(=O)O)cc1` [Example 44, Nα-Isobutyl-Nα-(4-methylbenzenesulfonyl)-Nε-[N′,N′-di-(4-picolyl)aminocarbonyl]-L-lysine], with 187 nM; and `CC(C)CN([C@H](CO)CCCCNC(=O)NCc1ccc2c(c1)OCO2)S(=O)(=O)c1ccc(N)cc1` [Example 74, (2S) 2-N-(4-Aminobenzenesulfonyl)-2-N-isobutyl-6-N-piperonylaminocarbonyl-2,6-diaminohexanol], with 22 nM; and `Cc1ccc(S(=O)(=O)N(CC(C)C)[C@H](CO)CCCCNC(=O)N(Cc2ccccc2)Cc2ccccc2N)cc1` [Example 62, (2S) 2-N-Isobutyl-2-N-(4-methylbenzenesulfonyl)-6-N-[N′-(2-aminobenzyl)-N′-benzylaminocarbonyl]-2,6-diaminohexanol], with 39 nM. Under `CC(C)CN([C@H](CO)CCCCNC(=O)N(Cc1ccccc1)Cc1cccnc1)S(=O)(=O)c1ccc(N)cc1` [Example 50, (2S) 2-N-(4-Aminobenzenesulfonyl)-2-N-isobutyl-6-N-[N′-benzyl-N′-(3-picolyl)aminocarbonyl]-2,6-diaminohexanol] stands 34 nM. Regarding `Cc1ccc(S(=O)(=O)N(CC(C)C)[C@@H](CCCCNC(=O)N[C@@H]2CCc3ccccc32)C(=O)O)cc1` [Example 24, (1S,1′R) Nα-Isobutyl-Nα-(4-methylbenzenesulfonyl)-Nε-(indanyl-1′-aminocarbonyl)-S-lysine], the Ki stood at 196 nM. Then `CC(C)CN([C@H](CO)CCCCNC(=O)N(Cc1ccc([N+](=O)[O-])cc1)Cc1ccc2c(c1)OCO2)S(=O)(=O)c1ccc(N)cc1` [Example 84, (2S) 2-N-(4-Aminobenzenesulfonyl)-2-N-isobutyl-6-N-[N′-(4-nitrobenzyl)-N′-piperonylaminocarbonyl]-2,6-diaminohexanol], with 2 nM. Regarding `Cc1ccc(S(=O)(=O)N(CC(C)C)[C@@H](CCCCNC(=O)N(Cc2ccccc2)Cc2ccccc2N)C(=O)O)cc1` [Example 57, Nα-Isobutyl-Nα-(4-methylbenzenesulfonyl)-Nε-[N′-(2-ninobenzyl)-N′-benzylaminocarbonyl]-L-lysine], the Ki came to 1.7 nM. Regarding `Cc1ccc(S(=O)(=O)N(CC(C)C)[C@H](CO)CCCCNC(=O)N(Cc2ccccc2)Cc2ccc(N)cc2)cc1` [Example 64, (2S) 2-N-Isobutyl-2-N-(4-methylbenzenesulfonyl)-6-N-[N′-(4-aminobenzyl)-N′-benzylaminocarbonyl]-2,6-diaminohexanol], the Ki worked out at 21 nM. Then `CCC(C)CN(C(CO)CCCCNC(=O)N(Cc1ccc2c(c1)OCO2)Cc1cccs1)S(=O)(=O)c1ccc(N)cc1` [Example 99, (2S) 2-N-(4-Aminobenzenesulfonyl)-2-N-(2-methylbutyl)-6-N-[N′-(2-thiophenemethyl)-N′-piperonylaminocarbonyl]-2,6-diaminohexanol], with 24 nM; and `CC(C)CN([C@H](CO)CCCCNC(=O)N(Cc1ccc(C(F)(F)F)cc1)Cc1ccc2c(c1)OCO2)S(=O)(=O)c1ccc(N)cc1` [Example 92, (2S) 2-N-(4-Aminobenzenesulfonyl)-2-N-isobutyl-6-N-[N′-(4-trifluoromethylbenzyl)-N′-piperonylaminocarbonyl]-2,6-diaminohexanol], with 2.5 nM; and `COc1ccc(CN(Cc2ccncc2)C(=O)NCCCC[C@@H](CO)N(CC(C)C)S(=O)(=O)c2ccc(N)cc2)cc1` [Example 53, (2S) 2-N-(4-Aminobenzenesulfonyl)-2-N-isobutyl-6-N-[N′-(4-methoxybenzyl)-N′-(4-picolyl)aminocarbonyl]-2,6-diaminohexanol], with 90 nM. Under `Cc1ccc(S(=O)(=O)N(CC(C)C)[C@@H](CCCCNC(=O)NCCc2c[nH]c3ccccc23)C(=O)O)cc1` [Example 6, Nα-Isobutyl-Nα-(4-methylbenzenesulfonyl)-Nε-[2′-(3-indolyl)ethylaminocarbonyl]-L-lysine] stands 40 nM. For the compound `Cc1ccc(S(=O)(=O)N(CC(C)C)[C@@H](CCCCNC(=O)N(C)Cc2ccccc2)C(=O)O)cc1` [Example 40, Nα-Isobutyl-Nα-(4-methylbenzenesulfonyl)-Nε-[(N′-benzyl-N′-methyl)aminocarbonyl]-L-lysine], the Ki came to 55 nM.

Consider `CC(C)CN([C@@H](CCCCNC(=O)NCc1ccccc1)C(=O)O)S(=O)(=O)c1ccc(N)cc1` [Example 18, Nα-(4-Aminobenzenesulfonyl)-Nα-isobutyl-Nε-benzylaminocarbonyl-L-lysine], for which the Ki came out at 200 nM. Then `COc1ccc(CN(Cc2ccncc2)C(=O)NCCCC[C@@H](C(=O)O)N(CC(C)C)S(=O)(=O)c2ccc(N)cc2)cc1` [Example 49, Nα-(4-Aminobenzenesulfonyl)-Nα-isobutyl-Nε-[N′-(4-methoxybenzyl)-N′-(4-picolyl)aminocarbonyl]-L-lysine], with 12 nM; and `CC(C)CN([C@H](CO)CCCCNC(=O)N(Cc1ccc(C(F)(F)F)cc1)Cc1cccc2c1OCO2)S(=O)(=O)c1ccc(N)cc1` [Example 90, (2S) 2-N-(4-Aminobenzenesulfonyl)-2-N-isobutyl-6-N-[N′-(4-trifluoromethylbenzyl)-N′-(2,3-methylenedioxy)benzylaminocarbonyl]-2,6-diaminohexanol], with 8.9 nM. Under `CCC(C)CN(C(CO)CCCCNC(=O)N(Cc1ccccc1)Cc1cccc2c1OCO2)S(=O)(=O)c1ccc(N)cc1` [Example 97, (2S) 2-N-(4-Aminobenzenesulfonyl)-2-N-(2-methylbutyl)-6-N-[N′-benzyl-N′-(2,3-methylenedioxy)benzylaminocarbonyl]-2,6-diaminohexanol] stands 21 nM.
